Reference: patent US4537772A, “Enhancing absorption of drugs from gastrointestinal tract using acylcarnitines” (Merck & Co., Inc., priority 1984, dated 1985)

Tests used:
[1] = rat, in vivo
Procedure: (§1) Effect of palmitoylcarnitine chloride on the rectal absorption of drug entities. Experiments were performed with rats wherein each animal received an aqueous microenema applied to the rectal cavity. […] Blood levels were monitored and the amount of drug absorbed calculated against intravenous administration and expressed as percent bioavailability.
(§2) Concentration dependence of palmitoylcarnitine effect on rectal absorption of sodium cefoxitin, a β-lactam antibiotic. […] Blood samples were collected and assayed for sodium cefoxitin. The amount of drug absorbed is expressed as percent bioavailability as compared to intravenous administration.
(§3) Effect of various carnitine esters on rectal absorption of sodium cefoxitin, a β-lactam antibiotic, and cyclo(N-Ala-Tyr-D-Trp-Lys-Val-Phe)acetate, a polypeptide. […] Blood samples were collected and sodium cefoxitin or cyclo(N-AlA-TyR-D-Trp-Lys-Val-Phe)acetate assayed. The amount of drug absorbed is expressed as percent bioavailability versus intravenous administration.
(§4) Importance of carnitine-palmitoyl ester linkage in absorption promoting effects on rectal sodium cefoxitin absorption. […] Blood was collected and sodium cefoxitin measured. Absorption of sodium cefoxitin is expressed as percent bioavailability versus intravenous administration.

in vivo [2] = conditions: rat
Procedure: as §1, §2, §3, §4

in vivo [3] = conditions: rat; remark: listed apart in the source
Procedure: Effect of palmitoylcarnitine chloride on small intestinal absorption of polypeptides. Experiments were performed with rats wherein each animal received an aqueous solution applied to the duodenal region. […] Blood levels were monitored and the amount of polypeptide absorbed calculated against intravenous administration and expressed as percent bioavailability.

[4] = Rectal absorption of target drug from aqueous microenema, percent bioavailability versus intravenous administration; conditions: carnitine without acyl ester
Procedure: as §1, §2, §3, §4

Compound	Percent Bioavailability (mean ± SD) Control [1]	Percent Bioavailability (mean ± SD) with Palmitoylcarnitine-Cl [1]	Sodium Cefoxitin Percent Bioavailability (mean ± SD) ([1]; pH 6)	other results
Nc1ccn([C@@H]2O[C@H](CO)[C@@H](O)[C@@H]2O)c(=O)n1 [Cytarabine]	0.5 ± 0.1%	9 ± 0.6%	–	–
CCCCCCCCCCCCCCCC(=O)O [Palmitic acid]	–	–	1 ± 0.8%	–
CC(C)[C@@H]1NC(=O)[C@H](CCCCN)NC(=O)[C@@H](Cc2c[nH]c3ccccc23)NC(=O)[C@H](Cc2ccc(O)cc2)NC(=O)[C@H](C)N(C)C(=O)[C@H](Cc2ccccc2)NC1=O [#-363,586, cyclo(N--Me--Ala--Tyr--DTrp--Lys--Val--Phe)acetate]	–	–	–	bioavailability (in vivo [2]; 0.1 mg, pH 6, Percent Bioavailability (mean ± SD) Cyclo(N-Ala-Tyr-D-Trp-Lys-Val-Phe)acetate): 7 ± 3.5%; bioavailability (in vivo [2]; Percent Bioavailability (mean ± SD) Control): 7 ± 3.5%; bioavailability (in vivo [2]; Percent Bioavailability (mean ± SD) with Palmitoylcarnitine-Cl): 100 ± 28.2%; bioavailability (in vivo [3]): 1%
CO[C@@]1(NC(=O)Cc2cccs2)C(=O)N2C(C(=O)O)=C(COC(N)=O)CS[C@@H]21 [Sodium cefoxitin]	2 ± 1.1%	68 ± 7.2%	2 ± 1.1%	Percent Bioavailability (mean ± SD) Sodium Cefoxitin ([1]; pH 6): 2 ± 1.1%; Sodium Cefoxitin Percent Bioavailability mean ± SD ([1]; pH 6): 2 ± 1.1%
C[N+](C)(C)CC(O)CC(=O)[O-] (stereo not shown) [Carnitine]	–	–	1 ± 0.6%	absorption promoting effect of carnitine alone [4]: no effect
Cn1c(=O)c2[nH]cnc2n(C)c1=O [Theophylline]	75 ± 3.3%	75 ± 2.6%	–	–
